In the NIST ThermoML archive (doi:10.1016/j.tca.2016.12.010):

Tests used:
[1] = xn = mol fraction of the nth substance listed; settings: 94.9 kPa, Liquid, Vibrating tube method
[2] = refractive index (Na D-line) (dimensionless); xn = mol fraction of the nth substance listed; settings: 94.9 kPa, Liquid, (Schmidt +Haensch) refractometer (Model DSR lambda)

CCCCCCCCO [octan-1-ol] + Cc1ccccc1
Settings	mass density, [1] [kg/m3]	refractive index, [2]
293.15 K, x1 = 0.1041	859.2	1.48465
293.15 K, x1 = 0.1973	853.95	1.4763
293.15 K, x1 = 0.3018	848.87	1.4681
293.15 K, x1 = 0.4033	844.52	1.46072
293.15 K, x1 = 0.5035	840.66	1.45442
293.15 K, x1 = 0.6007	837.23	1.44894
293.15 K, x1 = 0.6996	834.03	1.44373
293.15 K, x1 = 0.793	831.2	1.43912
293.15 K, x1 = 0.9044	828.07	1.4338
293.15 K, x1 = 1	825.57	1.4295
298.15 K, x1 = 0.1041	854.47	1.48192
298.15 K, x1 = 0.1973	849.33	1.47333
298.15 K, x1 = 0.3018	844.4	1.46514
298.15 K, x1 = 0.4033	840.2	1.45795
298.15 K, x1 = 0.5035	836.46	1.45173
298.15 K, x1 = 0.6007	833.15	1.44634
298.15 K, x1 = 0.6996	830.05	1.44116
298.15 K, x1 = 0.793	827.33	1.43666
298.15 K, x1 = 0.9044	824.31	1.43178
298.15 K, x1 = 1	821.9	1.42748
303.15 K, x1 = 0.1041	849.63	1.47921
303.15 K, x1 = 0.1973	844.59	1.47041
303.15 K, x1 = 0.3018	839.8	1.46231
303.15 K, x1 = 0.4033	835.73	1.45514
303.15 K, x1 = 0.5035	832.13	1.44904
303.15 K, x1 = 0.6007	828.94	1.44377
303.15 K, x1 = 0.6996	825.95	1.43893
303.15 K, x1 = 0.793	823.32	1.43469
303.15 K, x1 = 0.9044	820.4	1.4298
303.15 K, x1 = 1	818.08	1.42561
308.15 K, x1 = 0.1041	844.83	1.47628
308.15 K, x1 = 0.1973	839.89	1.46762
308.15 K, x1 = 0.3018	835.26	1.45938
308.15 K, x1 = 0.4033	831.33	1.45234
308.15 K, x1 = 0.5035	827.86	1.44634
308.15 K, x1 = 0.6007	824.78	1.44118
308.15 K, x1 = 0.6996	821.9	1.43647
308.15 K, x1 = 0.793	819.36	1.43239
308.15 K, x1 = 0.9044	816.55	1.42757
308.15 K, x1 = 1	814.31	1.42369
313.15 K, x1 = 0.1041	840.03	1.47333
313.15 K, x1 = 0.1973	835.16	1.46463
313.15 K, x1 = 0.3018	830.67	1.45656
313.15 K, x1 = 0.4033	826.9	1.44956
313.15 K, x1 = 0.5035	823.56	1.44362
313.15 K, x1 = 0.6007	820.6	1.43864
313.15 K, x1 = 0.6996	817.82	1.43413
313.15 K, x1 = 0.793	815.37	1.43002
313.15 K, x1 = 0.9044	812.65	1.42559
313.15 K, x1 = 1	811.09	1.42169
318.15 K, x1 = 0.1041	835.18	1.47014
318.15 K, x1 = 0.1973	830.43	1.46186
318.15 K, x1 = 0.3018	826.08	1.45372
318.15 K, x1 = 0.4033	822.45	1.44685
318.15 K, x1 = 0.5035	819.25	1.44101
318.15 K, x1 = 0.6007	816.41	1.43601
318.15 K, x1 = 0.6996	813.74	1.43149
318.15 K, x1 = 0.793	811.38	1.4277
318.15 K, x1 = 0.9044	808.77	1.42342
318.15 K, x1 = 1	807.7	1.41973
323.15 K, x1 = 0.1041	831.72	1.46755
323.15 K, x1 = 0.1973	827.05	1.45882
323.15 K, x1 = 0.3018	822.76	1.45094
323.15 K, x1 = 0.4033	819.26	1.44415
323.15 K, x1 = 0.5035	816.18	1.43836
323.15 K, x1 = 0.6007	813.46	1.43341
323.15 K, x1 = 0.6996	810.87	1.42902
323.15 K, x1 = 0.793	808.58	1.42541
323.15 K, x1 = 0.9044	806.05	1.42136
323.15 K, x1 = 1	804.05	1.41783
333.15 K, x1 = 0.1041	822.45	1.46181
333.15 K, x1 = 0.1973	817.92	1.45314
333.15 K, x1 = 0.3018	813.92	1.44526
333.15 K, x1 = 0.4033	810.68	1.43873
333.15 K, x1 = 0.5035	807.88	1.43312
333.15 K, x1 = 0.6007	805.4	1.42831
333.15 K, x1 = 0.6996	803.05	1.42423
333.15 K, x1 = 0.793	800.97	1.42094
333.15 K, x1 = 0.9044	798.68	1.41714
333.15 K, x1 = 1	796.88	1.41407

C1COCCN1 [tetrahydro-1,4-oxazine] + CCCCCCCCCCO
Settings	mass density, 293.15 K [kg/m3]	mass density, 303.15 K [kg/m3]	mass density, 313.15 K [kg/m3]	mass density, 323.15 K [kg/m3]	mass density, 333.15 K [kg/m3]	refractive index, 293.15 K	refractive index, 303.15 K	refractive index, 313.15 K	refractive index, 323.15 K	refractive index, 333.15 K
[1], x1 = 0.0959	842.65	835.47	828.35	821.08	813.99	–	–	–	–	–
[1], x1 = 0.1972	856.26	849.05	841.76	834.65	827.15	–	–	–	–	–
[1], x1 = 0.2983	870.74	863.32	855.74	848.36	840.7	–	–	–	–	–
[1], x1 = 0.3997	886.54	878.86	870.94	863.25	855.26	–	–	–	–	–
[1], x1 = 0.4984	902.71	894.8	886.64	878.61	870.39	–	–	–	–	–
[1], x1 = 0.5901	918.62	910.46	902.16	894.03	885.58	–	–	–	–	–
[1], x1 = 0.6748	933.78	925.53	916.99	908.75	900.13	–	–	–	–	–
[1], x1 = 0.7975	957.46	948.96	940.35	931.54	922.67	–	–	–	–	–
[1], x1 = 0.9053	980.12	971.33	961.51	952.35	943.05	–	–	–	–	–
[1], x1 = 1	999.54	989.89	979.82	969.78	959.74	–	–	–	–	–
[2], x1 = 0.0959	–	–	–	–	–	1.43851	1.43425	1.43051	1.42665	1.42296
[2], x1 = 0.1971	–	–	–	–	–	1.44011	1.43584	1.43195	1.42808	1.42408
[2], x1 = 0.2983	–	–	–	–	–	1.44177	1.4374	1.43335	1.42935	1.4252
[2], x1 = 0.3997	–	–	–	–	–	1.44353	1.43915	1.43498	1.43086	1.42655
[2], x1 = 0.4984	–	–	–	–	–	1.44523	1.4408	1.43652	1.43224	1.4278
[2], x1 = 0.5901	–	–	–	–	–	1.44686	1.44235	1.43799	1.43378	1.42913
[2], x1 = 0.6748	–	–	–	–	–	1.44835	1.44395	1.43952	1.43524	1.4304
[2], x1 = 0.7975	–	–	–	–	–	1.45055	1.44625	1.4419	1.43735	1.43224
[2], x1 = 0.9053	–	–	–	–	–	1.45253	1.44834	1.44365	1.43915	1.43382
[2], x1 = 1	–	–	–	–	–	1.45453	1.45031	1.44574	1.44113	1.43562
